Reference: PMC10685318, “Trans-cyclosulfamidate mannose-configured cyclitol allows isoform-dependent inhibition of GH47 α-D-mannosidases through a bump–hole strategy” (Chemical Science, 2023)

Biological target: T1, MAN2B1 (Homo sapiens, UniProt O00754)
T1 construct: expressed in transfected cells
T1 sequence (O00754 50-1011): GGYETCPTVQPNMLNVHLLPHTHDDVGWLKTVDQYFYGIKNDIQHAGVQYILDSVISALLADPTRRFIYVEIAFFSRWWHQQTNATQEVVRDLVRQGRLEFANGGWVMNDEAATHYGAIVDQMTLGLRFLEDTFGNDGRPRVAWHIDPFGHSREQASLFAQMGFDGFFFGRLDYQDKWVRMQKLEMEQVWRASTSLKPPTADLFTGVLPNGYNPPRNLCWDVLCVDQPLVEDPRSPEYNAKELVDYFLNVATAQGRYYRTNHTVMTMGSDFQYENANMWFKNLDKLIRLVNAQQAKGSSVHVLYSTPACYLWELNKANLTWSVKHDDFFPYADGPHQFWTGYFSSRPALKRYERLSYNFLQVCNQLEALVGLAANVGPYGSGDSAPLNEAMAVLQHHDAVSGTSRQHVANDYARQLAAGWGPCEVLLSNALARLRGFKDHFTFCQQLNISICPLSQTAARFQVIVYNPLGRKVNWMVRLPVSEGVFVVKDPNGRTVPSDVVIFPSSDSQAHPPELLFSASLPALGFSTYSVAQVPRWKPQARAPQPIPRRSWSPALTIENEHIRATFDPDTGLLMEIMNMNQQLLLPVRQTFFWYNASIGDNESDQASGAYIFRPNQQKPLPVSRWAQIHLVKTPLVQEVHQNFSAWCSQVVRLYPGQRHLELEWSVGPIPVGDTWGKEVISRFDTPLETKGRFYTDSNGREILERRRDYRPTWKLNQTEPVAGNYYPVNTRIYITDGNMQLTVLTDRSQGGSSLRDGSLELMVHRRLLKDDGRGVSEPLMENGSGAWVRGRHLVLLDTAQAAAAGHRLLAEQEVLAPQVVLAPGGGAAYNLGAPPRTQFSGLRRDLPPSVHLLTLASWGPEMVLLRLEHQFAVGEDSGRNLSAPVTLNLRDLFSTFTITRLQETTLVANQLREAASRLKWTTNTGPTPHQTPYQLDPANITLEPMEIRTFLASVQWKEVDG
Assay: 4-MU-α-man activity assay in overexpressed cell lysates
Assay type: biochemical
Excerpt: Finally, selectivity versus a panel of related exo-mannosidases was investigated. We first tested inhibition against all five human GH38 retaining α-mannosidases in overexpressed cell lysates using 4-methylumbelliferyl-α-mannoside (4-MU-α-man): Golgi mannosidase II and IIx (MAN2A1 and MAN2A2), cytosolic MAN2C1 and lysosomal MAN2B1 and MAN2B2. This α-mannosidase family follows a different conformational itinerary than GH47: ^0S2 → B2,5 → ^1S5.[35] […] Of note, the presence of cobalt has been associated with conformational changes in the active site of some GH38 α-mannosidases, which might affect the binding interaction with inhibitors.[36] Nevertheless, additional research is required to explore which specific metal ion is present in the MAN2C1 active site in its in vivo state.
Trans-Cyclosulfamidate Cyclitols Males et al.
2.3 GH38 α-mannosidases and GH2 β-mannosidase inhibition studies
All chemicals were of analytical grade and purchased from Sigma-Aldrich unless stated otherwise.
Optimal stability of cell homogenates and enzyme working stocks was ensured by preparation and temporary storage on ice. Cell homogenates were prepared and used on the same day. Protein concentrations were quantified using the Pierce BCA Protein Assay Kit (ThermoFisher). Protein samples were measured in clear flat-bottom polystyrene 96 well microplates (Greiner Bio-One) using a EMax Plus Microplate Reader (Molecular Devices). Activity measurements of human GH38 α-mannosidases and bacterial β-mannosidase BtMan2A were performed in black flat-bottom polystyrene 96 wells microplates (Greiner Bio-One) and total fluorescence was measured using a Perkin Elmer LS-55 fluorescence spectrometer at wavelengths λex = 366 and λem = 445 nm, with the signal optimized for medium gain readings. The fluorescence values of each enzyme sample were corrected for the background signal of a blank sample containing no enzyme. In the case of IC50 determinations, values were normalized against a control sample containing enzyme without added inhibitor. For a single experiment, three separate curves were fitted from a technical triplicate by setting the inhibitor concentration in µM against the normalized response using GraphPad Prism 8.4.2 software. The Prism functions ‘[inhibitor] versus normalized response’ and ‘[inhibitor] versus normalized response -- variable slope’ were compared for each curve using the Akaike’s Information Criterion method to select the preferred model. Reported IC50 values are mean ± standard deviation from a biological […]
General cell culture protocol
HEK293T cells were grown to confluency at 37 °C under a 5% CO2 atmosphere in Dulbecco’s Modified Eagle’s Medium (DMEM) with a high glucose concentration (Capricorn Scientific, DMEM-HPXA) that was supplemented with 10% fetal calf serum, 0.1% (w/v) penicillin/streptomycin and 1% (v/v) Glutamax. Cells were passaged twice a week to new round polystyrene (PS) tissue culture dishes (Sarstedt) by detachment off the former culture plates by careful pipetting. To prepare cell pellets for activity measurements, plates were grown to confluency and harvested in phosphate buffered saline (PBS). After centrifugation at 1500 rpm for 5 min, the remaining PBS was aspirated and the cells were resuspended in fresh PBS. The concentration of the resulting suspension was then counted using a TC20 automated cell counter (BioRad). Aliquots were centrifuged at 2000 rpm for 5 min and the resulting cell pellets were stored at -80 °C until further use.
4-MU activity assay protocol for human GH38 α-mannosidases
HEK293T cells stably overexpressing human GH38 α-mannosidases MAN2A1, MAN2A2, MAN2B1, MAN2B2 and MAN2C1 were prepared as previously described[11] and were kindly donated by Dr. C. L.
Kuo. Homogenates were prepared by sonicating cell pellets (Sonics VibraCell, 5x1 s with 30 s interval at 20% amplitude) in 150 mM McIlvain buffer of pH 5.5 (MAN2A1, MAN2A2), pH 4.5 (MAN2B1, MAN2B2) or pH 6.7 (MAN2C1) containing either 2 mM ZnCl2 (MAN2A1, MAN2A2, MAN2B1, MAN2B2) […]

With `O=S1(=O)N[C@@H]2[C@@H](O)[C@@H](O)[C@H](O)[C@@H](CO)[C@H]2O1` [compound 6, 1,6-trans-manno-cyclosulfamidate] the “activity when the buffer was enriched with CoCl2” value (CoCl2) was “no activity” and the IC50 (Zn2+) was greater than 1000 µM.
